Measured values: article PMC3639985, “Differential Ligand Binding Affinities of Human Estrogen Receptor-α Isoforms” (PLoS ONE, 2013)
Where two headings read alike, the source gives them in different places.

How the values were obtained:
human ER66 = molecular target: T1, human ER66 (Homo sapiens, UniProt P03372); experiment: Competitive [3H]-17β-estradiol ligand binding assay, ER66
T1 sequence (P03372 1-595): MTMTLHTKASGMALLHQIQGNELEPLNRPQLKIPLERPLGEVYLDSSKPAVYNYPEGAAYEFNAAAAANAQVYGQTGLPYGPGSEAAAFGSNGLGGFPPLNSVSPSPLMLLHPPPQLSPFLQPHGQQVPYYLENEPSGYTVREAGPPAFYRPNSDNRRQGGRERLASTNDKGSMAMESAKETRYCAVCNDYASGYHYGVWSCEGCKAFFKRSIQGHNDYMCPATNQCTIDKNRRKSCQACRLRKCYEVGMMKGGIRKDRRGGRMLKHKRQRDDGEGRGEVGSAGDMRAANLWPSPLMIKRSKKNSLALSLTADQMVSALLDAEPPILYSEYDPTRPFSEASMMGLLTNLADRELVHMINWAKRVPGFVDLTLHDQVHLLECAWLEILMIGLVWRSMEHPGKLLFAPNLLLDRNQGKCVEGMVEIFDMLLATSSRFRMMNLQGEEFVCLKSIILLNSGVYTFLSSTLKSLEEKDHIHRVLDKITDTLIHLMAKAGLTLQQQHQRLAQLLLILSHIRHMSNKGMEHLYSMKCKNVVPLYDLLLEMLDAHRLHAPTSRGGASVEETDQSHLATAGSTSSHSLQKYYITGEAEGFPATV

human ER46 = molecular target: T2, human ER46 (Homo sapiens, UniProt P03372); experiment: Competitive [3H]-17β-estradiol ligand binding assay, ER46
T2 sequence (P03372 1-422 isoform P03372-3): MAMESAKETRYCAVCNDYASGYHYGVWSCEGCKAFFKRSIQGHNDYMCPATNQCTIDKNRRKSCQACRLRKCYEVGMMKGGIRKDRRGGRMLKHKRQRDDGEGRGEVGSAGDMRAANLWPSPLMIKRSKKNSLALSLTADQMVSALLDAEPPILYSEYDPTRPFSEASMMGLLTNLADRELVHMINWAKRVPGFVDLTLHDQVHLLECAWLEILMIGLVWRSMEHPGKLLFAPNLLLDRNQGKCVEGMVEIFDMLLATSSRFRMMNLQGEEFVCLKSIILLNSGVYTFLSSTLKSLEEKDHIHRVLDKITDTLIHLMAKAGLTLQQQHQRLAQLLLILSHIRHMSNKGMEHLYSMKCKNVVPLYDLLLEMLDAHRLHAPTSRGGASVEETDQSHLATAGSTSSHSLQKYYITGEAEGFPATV

ER36 = molecular target: ER36; parameters: method as in PMID 20197310; details: previous studies; cited from earlier work
ERα over ERβ = details: cited from earlier work
palmitoylated ER66 = experiment: Native gel electrophoresis / Western blot of palmitoylated ER66 in eukaryotic cell-free expression system; type: biochemical, human; details: 2-bromopalmitate 100 µM
palmitoylated ER46 = experiment: Native gel electrophoresis / Western blot of palmitoylated ER46 in eukaryotic cell-free expression system; type: biochemical, human; details: 2-bromopalmitate 100 µM
[1] = ratio of IC50 values of 17β-estradiol and compound, 17β-estradiol set at 100

CCCc1c(-c2ccc(O)cc2)nn(-c2ccc(O)cc2)c1-c1ccc(O)cc1 [PPT, propylpyrazole triol]
RBA ER66 (human ER66; [1]): 42052
RBA ER46 (human ER46; [1]): 23016

C[C@]12CC[C@@H]3c4ccc(O)cc4CC[C@H]3[C@@H]1CC[C@@H]2O [17β-estradiol]
Kd (ER36): 0.0022 µM

methyl-piperidino-pyrazole dihydrochloride [MPP]
selectivity for ERα over ERβ (ERα over ERβ): 200 fold
RBA ER66 (human ER66): 0.305
RBA ER46 (human ER46): 0.498
higher affinity for ER46 when compared to ICI 182,780 (human ER46): four-fold

O=c1c(-c2ccc(O)cc2)coc2cc(O)ccc12 [Daidzein, daidzein]
RBA ER66 (human ER66; [1]): 0.003
RBA ER46 (human ER46; [1]): 0.002

CCCCCCCCCCCCCCC(Br)C(=O)O (stereo not drawn) [2-bromopalmitate, 2-bromohexadecanoic acid]
expression of palmitoylated ER66 (palmitoylated ER66): abolished
expression of palmitoylated ER46 (palmitoylated ER46): abolished

Oc1ccc(-c2c(-c3ccccc3)nn3c(C(F)(F)F)cc(C(F)(F)F)nc23)cc1 [PHTPP, 4-[2-phenyl-5,7-bis(trifluoromethyl)pyrazolo[1,5-a]pyrimidin-3-yl]phenol]
IC50 (human ER66): 1.33 µM
RBA ER66 (human ER66; [1]): 0.003
IC50 (human ER46): 3.33 µM
RBA ER46 (human ER46): 0.001
